SMILES strings stand for the structures.

Test [1] has as its system chronic constriction nerve injury model rat. As to the kind of experiment: Chronic constriction nerve injury model rat, mechanical allodynia by von Frey test. It counts as in vivo. The method, then: This test was performed by referring to a method of Bennett et al. (Pain, 1988, vol. 33, pp. 87-107). Compound A was used as a test substance, and celecoxib, one of NSAIDs, was used as a reference substance. The compound A was administered at a dose of 30 mg/kg (Compound A group). The celecoxib was administered at a dose of 30 mg/kg (celecoxib group). To a control group, a 0.5% methyl cellulose aqueous solution used as a vehicle was administered. Under anesthetic with Somnopentyl (manufactured by Kyoritsu Seiyaku Corporation, about 52 mg/kg, intraperitoneal administration), nerve constriction operation was performed on the left sciatic nerves of Sprague-Dawley male rats (7 weeks old). Briefly, a left femoral region of each rat was dissected, the sciatic nerve was detached from tissues around, and the nerve was loosely constricted with a 4-0 silk suture (manufactured by Eticon Inc., surgical silk) for having narrow parts in four positions at intervals of about 1 mm. The muscular layer and the skin were respectively sutured, and the operation region was disinfected. The vehicle, the test substance or the reference substance was orally administered once a day continuously for 14 days from the 16th day after the operation. From the start of the administration, pain sense (mechanical allodynia) of the footpad of left hind paw was evaluated by von Frey test. […] The evaluation of the pain sense was expressed as an average of pain threshold values.

A further test addresses T1, MIF (Homo sapiens, UniProt P14174).
T1 construct: (catalogue number not given); host or cells: E. coli BL21 Star (DE3)
T1 sequence (P14174 2-115 limits assumed): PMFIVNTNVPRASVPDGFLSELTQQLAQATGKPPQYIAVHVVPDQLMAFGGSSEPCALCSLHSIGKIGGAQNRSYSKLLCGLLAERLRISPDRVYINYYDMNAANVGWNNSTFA
Put plainly: Inhibition of MIF tautomerase activity (L-dopachrome methyl ester, absorbance at 475 nm). It counts as biochemical. To be noted: 30 μmol/L test substance, 10 to 50 nmol/L MIF, pH 6.2, control = 100%; read-out: Inhibition Rate of Tautomerase Reaction. As to the method: The inhibitory effect of test substances against tautomerase activity of MIF was evaluated by referring to a method of Healy et al. (Cancer Epidemiology Biomarkers and Prevention, 2011, vol. 20, pp. 1516-1523).
In this method, tautomeric reaction from L-3,4-dihydroxyphenylalanine methyl ester (L-dopachrome methyl ester, colored) to 5,6-hydroxyindole-2-carboxylic acid methyl ester (no color) is measured as a change in absorbance at 475 nm.
As an enzyme source, recombinant MIF manufactured by Abcam Plc. or MIF produced and purified by referring to a method of Lubetsky et al. (The Journal of Biological Chemistry, 2002, vol. 277, pp. 24976-24982) was used. A purification method for MIF is described below.
The pET15b vector (Merck) into which the full length gene sequence of MIF had been inserted was transfected E. coli BL21 Star (DE3) strain (Life Technologies Corporation). […] The E. coli were resuspended in buffer (pH 7.5) containing 20 mmol/L Tris (Wako Pure Chemical Industries, Ltd.), 20 mmol/L sodium chloride (Wako Pure Chemical Industries, Ltd.) and 1 mmol/L dithiothreitol (Wako Pure Chemical Industries, Ltd.), and the resultant was subjected to ultrasonic lysis and centrifugation at 15000 rpm for 10 minutes. The thus obtained supernatant was filtered using a 0.20 μm filter, and was allowed to pass through HiTrap Q HP and HiTrap SP HP columns (GE Healthcare Japan Corporation), so as to separate flow-through fractions each of 5 mL. Each of 10 μL of the separated fractions was subjected to the electrophoresis using 5 to 20% polyacrylamide gel (Wako Pure Chemical Industries, Ltd.), and all proteins were stained with Coomassie brilliant blue reagent (Bio-Rad Laboratories, Inc.). On the basis of results thus obtained, a fraction containing a large amount of MIF and containing least amount of other proteins was selected as purified MIF. The concentration of MIF protein was measured by using BCA protein assay reagent (Thermo Fisher Scientific K. K.).
Inhibitory effect of each test substance against MIF tautomerase activity was measured as follows.
A final concentration of 10 to 50 nmol/L of MIF and a final concentration of 30 μmol/L of each test substance or 0.5% dimethyl sulfoxide (Wako Pure Chemical Industries, Ltd.) as a control were added to buffer (pH 6.2) containing 50 mmol/L Bis-Tris (Dojindo Laboratories) and 1 mmol/L EDTA (Dojindo Laboratories), and reaction was performed at room temperature for 15 minutes to give a reaction solution 1.
On the other hand, 1/20 volume of 12 mmol/L L-3,4-dihydroxyphenylalanine methyl ester (Sigma Aldrich) and 1/20 volume of 24 mmol/L sodium periodate (Wako Pure Chemical Industries, Ltd.) were added to buffer having the same composition as that used for obtaining the reaction solution 1, to give a reaction solution 2.
Next, the reaction solution 1 and the reaction solution 2 were mixed, and the temporal change of absorbance at 475 nm of the obtained mixture was immediately measured.
The difference of the absorbencies between the at about 1 minute after the measurement start and at about 5 minutes after was obtained. Assuming that the absorbance change of the control is 100%, an inhibiting rate of the tautomerase reaction in presence of=each test substance was calculated.

The inhibition is the change of the read-out against control, counted positive when it falls. For `CS(=O)(=O)Nc1cc2occ(NC=O)c(=O)c2cc1Oc1ccccc1` [Compound A, N-[7-[(methylsulfonyl)amino]-4-oxo-6-phenoxy-4H-1-benzopyran-3-yl]formamide], in test [1] (30 mg/kg orally once a day for 14 days, compared with control group), the “Effect on the symptom of mechanical allodynia” value is “inhibited the symptom of the mechanical allodynia”. Also, the “Average of pain thresholds, 30th day after operation” value in test [1] (von Frey test, left hind paw, 30 mg/kg orally once a day for 14 days from the 16th day after operation) was determined as 13.5 g. Further, in test [1] (von Frey test, left hind paw, day before start of administration, 30 mg/kg groups), the “Average of pain thresholds, 15th day after operation” value was determined as 2.4 g. In addition, at MIF, the inhibition at 30 µM fell in the range of 50 to 75%.

(Values after US9918963B2, “Therapeutic agent for disease based on inhibitory effect of macrophage migration inhibitory factor” (TOYAMA CHEMICAL CO., LTD., priority 2013, dated 2018).)
